Values after ≈ are worked out from the molar mass of the structure shown.
What was measured:
Bacillus subtilis [1] = test: Antimicrobial activity against Bacillus subtilis NCIM 2999 at 100 ug/mL incubated for 24 hrs by agar disc diffusion method; format: functional; conditions: NCIM 2999, 24 h, read-out: IZ
Candida albicans [2] = test: Antimicrobial activity against Candida albicans NCIM 3471 at 100 ug/mL incubated for 48 hrs by agar disc diffusion method; format: functional; conditions: NCIM 3471, 48 h, read-out: IZ
Candida albicans [3] = test: Antimicrobial activity against Candida albicans NCIM 3471 by broth dilution method; format: functional
Bacillus subtilis [4] = test: Antimicrobial activity against Bacillus subtilis NCIM 2999 by broth dilution method; format: functional
[5] = target: T1, Amine oxidase [flavin-containing] A (Mus musculus, UniProt Q64133); test: Inhibition of MAOA in mouse brain mitochondrial fraction assessed as enzyme activity per mg of protein using 5-HT substrate incubated for 20 mins by UV-spectrophotometry; format: tissue-based
T1 sequence (Q64133 whole entry): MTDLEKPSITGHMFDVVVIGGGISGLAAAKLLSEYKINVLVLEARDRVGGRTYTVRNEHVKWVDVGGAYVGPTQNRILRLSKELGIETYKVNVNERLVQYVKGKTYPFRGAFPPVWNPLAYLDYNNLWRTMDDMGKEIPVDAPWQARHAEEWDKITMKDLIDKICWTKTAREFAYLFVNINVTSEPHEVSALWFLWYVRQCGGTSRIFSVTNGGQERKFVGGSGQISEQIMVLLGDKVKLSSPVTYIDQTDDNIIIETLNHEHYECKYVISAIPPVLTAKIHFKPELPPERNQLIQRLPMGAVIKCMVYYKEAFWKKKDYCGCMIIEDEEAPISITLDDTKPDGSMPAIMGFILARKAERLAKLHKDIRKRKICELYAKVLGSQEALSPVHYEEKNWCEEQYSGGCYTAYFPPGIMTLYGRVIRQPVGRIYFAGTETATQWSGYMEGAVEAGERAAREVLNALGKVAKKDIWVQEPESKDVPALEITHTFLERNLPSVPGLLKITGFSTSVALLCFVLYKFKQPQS

Staphylococcus aureus [6] = test: Antimicrobial activity against Staphylococcus aureus NCIM 5021 by broth dilution method; format: functional
[7] = target: T2, Amine oxidase [flavin-containing] B (Mus musculus, UniProt Q8BW75); test: Inhibition of MAOB in mouse brain mitochondrial fraction assessed as enzyme activity per mg of protein using beta-PEA substrate incubated for 20 mins by UV-spectrophotometry; format: tissue-based
T2 sequence (Q8BW75 whole entry): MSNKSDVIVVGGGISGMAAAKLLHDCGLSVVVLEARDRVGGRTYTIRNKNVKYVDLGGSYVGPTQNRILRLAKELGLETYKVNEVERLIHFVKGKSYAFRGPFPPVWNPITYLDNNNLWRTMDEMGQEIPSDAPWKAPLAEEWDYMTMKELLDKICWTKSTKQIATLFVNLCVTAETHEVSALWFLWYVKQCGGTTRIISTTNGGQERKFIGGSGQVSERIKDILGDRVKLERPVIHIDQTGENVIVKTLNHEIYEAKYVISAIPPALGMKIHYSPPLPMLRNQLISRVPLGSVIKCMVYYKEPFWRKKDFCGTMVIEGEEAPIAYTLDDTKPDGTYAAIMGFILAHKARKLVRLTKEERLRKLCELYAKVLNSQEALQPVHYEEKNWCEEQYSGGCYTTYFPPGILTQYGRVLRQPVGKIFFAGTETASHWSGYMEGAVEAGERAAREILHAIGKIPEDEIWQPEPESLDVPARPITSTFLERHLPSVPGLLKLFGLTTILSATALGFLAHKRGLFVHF

Aspergillus flavus [8] = test: Antimicrobial activity against Aspergillus flavus NCIM 524 at 100 ug/mL incubated for 48 hrs by agar disc diffusion method; format: functional; conditions: NCIM 524, 48 h, read-out: IZ
Mus musculus [9] = test: Antidepressant activity in Swiss albino mouse assessed as mean immobility time measured during last 4 mins of single 6 mins test session at 20 mg/kg, po by forced swim test (reference value: 75.33 +/- 3.35 secs); format: functional
[10] = test system: Radical scavenging activity; test: Antioxidant activity assessed as DPPH free radical scavenging activity by spectrophotometry; format: functional
Escherichia coli [11] = test: Antimicrobial activity against Escherichia coli NCIM 2574 at 100 ug/mL incubated for 24 hrs by agar disc diffusion method; format: functional; conditions: NCIM 2574, 24 h, read-out: IZ
Aspergillus flavus [12] = test: Antimicrobial activity against Aspergillus flavus NCIM 524 by broth dilution method; format: functional
Mus musculus [13] = test: Antidepressant activity in Swiss albino mouse assessed as mean immobility time measured during 6 mins period at 20 mg/kg, po administered 30 mins before test by tail suspension test (reference value: 185.7 +/- 5.33 secs); format: functional
Staphylococcus aureus [14] = test: Antimicrobial activity against Staphylococcus aureus NCIM 5021 at 100 ug/mL incubated for 24 hrs by agar disc diffusion method; format: functional; conditions: NCIM 5021, 24 h, read-out: IZ
[15] = Antioxidant activity assessed as superoxide scavenging activity using xanthine-xanthine oxidase system by NBT dye reduction based assay; format: functional
Escherichia coli [16] = test: Antimicrobial activity against Escherichia coli NCIM 2574 by broth dilution method; format: functional
Pseudomonas aeruginosa [17] = test: Antimicrobial activity against Pseudomonas aeruginosa NCIM 5029 by broth dilution method; format: functional
Pseudomonas aeruginosa [18] = test: Antimicrobial activity against Pseudomonas aeruginosa NCIM 5029 at 100 ug/mL incubated for 24 hrs by agar disc diffusion method; format: functional; conditions: NCIM 5029, 24 h, read-out: IZ
Escherichia coli [19] = test: Antimicrobial activity against Escherichia coli NCIM 2574 at 10 ug/disc incubated for 24 hrs by agar disc diffusion method; format: functional; conditions: NCIM 2574, 24 h, read-out: IZ
Staphylococcus aureus [20] = test: Antimicrobial activity against Staphylococcus aureus NCIM 5021 at 10 ug/disc incubated for 24 hrs by agar disc diffusion method; format: functional; conditions: NCIM 5021, 24 h, read-out: IZ
Pseudomonas aeruginosa [21] = test: Antimicrobial activity against Pseudomonas aeruginosa NCIM 5029 at 10 ug/disc incubated for 24 hrs by agar disc diffusion method; format: functional; conditions: NCIM 5029, 24 h, read-out: IZ
Bacillus subtilis [22] = test: Antimicrobial activity against Bacillus subtilis NCIM 2999 at 10 ug/disc incubated for 24 hrs by agar disc diffusion method; format: functional; conditions: NCIM 2999, 24 h, read-out: IZ

| MIC (Candida albicans [3]) [µg/mL] | MIC (Bacillus subtilis [4]) [µg/mL] | MIC (Staphylococcus aureus [6]) [µg/mL] | IC50 [10] [µg/mL] | MIC (Aspergillus flavus [12]) [µg/mL] | IC50 [15] [µg/mL] | MIC (Escherichia coli [16]) [µg/mL] | MIC (Pseudomonas aeruginosa [17]) [µg/mL] | SMILES | zone of inhibition at 100 µg/mL (Bacillus subtilis [1]) [mm] | zone of inhibition at 100 µg/mL (Candida albicans [2]) [mm] | zone of inhibition at 100 µg/mL (Aspergillus flavus [8]) [mm] | Time (Mus musculus [9]) [s] | zone of inhibition at 100 µg/mL (Escherichia coli [11]) [mm] | Time (Mus musculus [13]) [s] | zone of inhibition at 100 µg/mL (Staphylococcus aureus [14]) [mm] | zone of inhibition at 100 µg/mL (Pseudomonas aeruginosa [18]) [mm] | further results |
| --- | --- | --- | --- | --- | --- | --- | --- | --- | --- | --- | --- | --- | --- | --- | --- | --- | --- |
| 28 (≈ 96.8 µM) | 26 (≈ 89.9 µM) | 24 (≈ 82.9 µM) | 14.9 (≈ 51.5 µM) | 30 (≈ 104 µM) | 18.2 (≈ 62.9 µM) | 30 (≈ 104 µM) | 30 (≈ 104 µM) | COc1cc(/C=C/C(=O)N2CCCCC2)cc2c1OCO2 | 13 | 12.5 | 11 | 32.15 | 15 | 78.18 | 10 | 16 | Activity [5]: 17.09 nmol; Activity [7]: 18.01 nmol |
| 100 (≈ 328 µM) | 50 (≈ 164 µM) | 50 (≈ 164 µM) | 8.3 (≈ 27.2 µM) | 90 (≈ 295 µM) | 12.8 (≈ 41.9 µM) | > 100 | > 100 | COc1cc(/C=C/C(=O)N2CCC(O)CC2)cc2c1OCO2 | 7 | 14 | 10.2 | 30.8 | 11 | 76.18 | 10 | 11 | Activity [5]: 14.46 nmol; Activity [7]: 15.72 nmol |
| 100 (≈ 328 µM) | 62 (≈ 203 µM) | 50 (≈ 164 µM) | 13.4 (≈ 43.9 µM) | > 100 | 16.9 (≈ 55.3 µM) | > 100 | > 100 | COc1cc(/C=C/C(=O)N2CCCC(O)C2)cc2c1OCO2 (centres undefined) | 11 | 18 | 10 | 35.4 | 7 | 84.2 | 8 | 12 | Activity [5]: 16.63 nmol; Activity [7]: 17.33 nmol |
| 25 (≈ 78.8 µM) | 30 (≈ 94.5 µM) | 28 (≈ 88.2 µM) | 13.8 (≈ 43.5 µM) | 25 (≈ 78.8 µM) | 15.8 (≈ 49.8 µM) | 50 (≈ 158 µM) | 30 (≈ 94.5 µM) | COc1cc(/C=C/C(=O)N2C(C)CCCC2C)cc2c1OCO2 (centres undefined) | 12 | 12 | 15 | 43.33 | 10 | 77.33 | 11 | 11 |  |
| 30 (≈ 98.9 µM) | 25 (≈ 82.4 µM) | 24 (≈ 79.1 µM) | 15.3 (≈ 50.4 µM) | 30 (≈ 98.9 µM) | 19.8 (≈ 65.3 µM) | 40 (≈ 132 µM) | 36 (≈ 119 µM) | COc1cc(/C=C/C(=O)N2CCC(C)CC2)cc2c1OCO2 | 10 | 10 | 12 | 51.6 | 10 | 104.9 | 12 | 9 |  |
| 25 (≈ 86.1 µM) | 50 (≈ 172 µM) | 30 (≈ 103 µM) | 20.1 (≈ 69.2 µM) | 15 (≈ 51.7 µM) | 38.4 (≈ 132 µM) | 20 (≈ 68.9 µM) | 25 (≈ 86.1 µM) | COc1cc(/C=C/C(=O)N2CCNCC2)cc2c1OCO2 | 10 | 10 | 14 | 71 | 11 | 178 | 14 | 13 |  |
| 15 (≈ 45.1 µM) | 14 (≈ 42.1 µM) | 14 (≈ 42.1 µM) | 23.2 (≈ 69.8 µM) | 22 (≈ 66.2 µM) | 21.9 (≈ 65.9 µM) | 18 (≈ 54.2 µM) | 18.7 (≈ 56.3 µM) | COc1cc(/C=C/C(=O)N2CCN(C(C)=O)CC2)cc2c1OCO2 | 16 | 11 | 10.4 | 55.83 | 12 | 116.2 | 11 | 14 |  |
| 17 (≈ 42.9 µM) | 15 (≈ 37.8 µM) | 16.4 (≈ 41.4 µM) | 14.7 (≈ 37.1 µM) | 23 (≈ 58 µM) | 19.4 (≈ 48.9 µM) | 20 (≈ 50.4 µM) | 20 (≈ 50.4 µM) | COc1ccccc1N1CCN(C(=O)/C=C/c2cc(OC)c3c(c2)OCO3)CC1 | 16 | 14.1 | 13.6 | 59.16 | 9 | 124.2 | 14 | 11 |  |
| 25 (≈ 68.2 µM) | 18 (≈ 49.1 µM) | 18.3 (≈ 49.9 µM) | 36.9 (≈ 101 µM) | 40 (≈ 109 µM) | 55.3 (≈ 151 µM) | 25 (≈ 68.2 µM) | 25 (≈ 68.2 µM) | COc1cc(/C=C/C(=O)N2CCN(c3ccccc3)CC2)cc2c1OCO2 | 14 | 13.7 | 11 | 66.2 | 10 | 143.5 | 12 | 13 |  |
| 14 (≈ 38.1 µM) | 15.5 (≈ 42.2 µM) | 15.2 (≈ 41.4 µM) | 19.3 (≈ 52.5 µM) | 15 (≈ 40.8 µM) | 18.5 (≈ 50.4 µM) | 22 (≈ 59.9 µM) | 20 (≈ 54.4 µM) | COc1cc(/C=C/C(=O)N2CCN(c3ccccn3)CC2)cc2c1OCO2 | 12 | 11.4 | 10.9 | 67.6 | 11 | 148.5 | 14 | 17 |  |
|  |  |  | 12.6 (≈ 71.5 µM) |  |  |  |  | O=C1O[C@H]([C@@H](O)CO)C(O)=C1O [ASCORBIC ACID] |  |  |  |  |  |  |  |  |  |
|  |  |  |  |  |  |  |  | C#CCN(C)CCCOc1ccc(Cl)cc1Cl [CLORGILINE] |  |  |  |  |  |  |  |  | Activity [5]: 17.05 nmol; Activity [7]: 18.16 nmol |
|  |  |  |  |  |  |  |  | CN(C)CCCN1c2ccccc2CCc2ccccc21 [IMIPRAMINE] |  |  |  | 32.17 |  | 79.5 |  |  |  |
|  | 5 (≈ 8.6 µM) | 5 (≈ 8.6 µM) |  |  |  | 5 (≈ 8.6 µM) | 5 (≈ 8.6 µM) | CN[C@@H]1[C@H](O[C@H]2[C@H](O[C@H]3[C@H](O)[C@@H](O)[C@H](N=C(N)N)[C@@H](O)[C@@H]3N=C(N)N)O[C@@H](C)[C@]2(O)C=O)O[C@@H](CO)[C@H](O)[C@H]1O [STREPTOMYCIN] |  |  |  |  |  |  |  |  | zone of inhibition at 10 µg/disc (Escherichia coli [19]): 14.5 mm; zone of inhibition at 10 µg/disc (Staphylococcus aureus [20]): 11.6 mm; zone of inhibition at 10 µg/disc (Pseudomonas aeruginosa [21]): 14 mm; zone of inhibition at 10 µg/disc (Bacillus subtilis [22]): 10.4 mm |

From ChEMBL document CHEMBL2203030, “Synthesis, characterization, antidepressant and antioxidant activity of novel piperamides bearing piperidine and piperazine analogues” (Bioorg Med Chem Lett, 2012)
